Assay results reported in PubChem BioAssay (NCI).
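Step 1: Grow cells in 96-well plates. Step 2: Expose to compound for 48 hours at 5 concentrations. Step 3: Interpolate endpoints linearly; if unreached, use highest concentration. The concentration for full growth arrest is given as TGI.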

Tests used:
Experiment in all cases: DTP human tumour cell line panel, 48 h
[1] = tested on: DLD-1 colon
[2] = tested on: NCI-H226 lung
[3] = tested on: M19-MEL melanoma
[4] = tested on: ACHN renal
[5] = tested on: COLO 205 colon
[6] = tested on: SR leukemia
[7] = tested on: A498 renal
[8] = tested on: HT29 colon
[9] = tested on: OVCAR-4 ovarian
[10] = tested on: KM12 colon
[11] = tested on: UACC-62 melanoma
[12] = tested on: NCI-H23 lung
[13] = tested on: NCI-H460 lung
[14] = tested on: SK-OV-3 ovarian
[15] = tested on: SNB-78 CNS
[16] = tested on: UACC-257 melanoma
[17] = tested on: EKVX NSCLC
[18] = tested on: UO-31 renal
[19] = tested on: IGROV1 ovarian
[20] = tested on: XF 498 CNS
[21] = tested on: K-562 leukemia
[22] = tested on: LXFL 529 NSCLC
[23] = tested on: DMS 114 small cell lung
[24] = tested on: SF-268 CNS
[25] = tested on: SN12C renal
[26] = tested on: SF-295 CNS
[27] = tested on: CAKI-1 renal
[28] = tested on: KM20L2 colon
[29] = tested on: SNB-19 CNS
[30] = tested on: LOX IMVI melanoma
[31] = tested on: NCI-H522 lung
[32] = tested on: TK-10 renal
[33] = tested on: MALME-3M melanoma
[34] = tested on: HOP-62 NSCLC
[35] = tested on: MOLT-4 leukemia
[36] = tested on: U251 CNS
[37] = tested on: SK-MEL-2 melanoma
[38] = tested on: HCC-2998 colon
[39] = tested on: CCRF-CEM leukemia
[40] = tested on: SK-MEL-28 melanoma
[41] = tested on: HL-60(TB) leukemia
[42] = tested on: OVCAR-8 ovarian
[43] = tested on: DMS 273 small cell lung
[44] = tested on: SF-539 CNS
[45] = tested on: HOP-92 NSCLC
[46] = tested on: RXF 393 renal
[47] = tested on: A549 NSCLC
[48] = tested on: 786-0 renal
[49] = tested on: SW-620 colon
[50] = tested on: HOP-18 NSCLC
[51] = tested on: RPMI-8226 leukemia
[52] = tested on: M14 melanoma
[53] = tested on: SK-MEL-5 melanoma
[54] = tested on: SNB-75 CNS
[55] = tested on: OVCAR-5 ovarian
[56] = tested on: HCT-116 colon
[57] = tested on: HCT-15 colon
[58] = tested on: OVCAR-3 ovarian

Measured: TGI

COc1ccc2c(c1)N1CCc3cc(OC)c(OC)cc3C1C2 (stereo not drawn)
> 100 µM: [1] | [3] | [4] | [5] | [6] | [7] | [8] | [9] | [10] | [11] | [12] | [13] | [14] | [15] | [16] | [17] | [18] | [19] | [20] | [21] | [22] | [23] | [24] | [25] | [26] | [27] | [28] | [29] | [30] | [31] | [32] | [33] | [34] | [35] | [36] | [37] | [38] | [39] | [40] | [41] | [42] | [43] | [44] | [45] | [46] | [47] | [48] | [49] | [50]
98.7 µM: [2]

CC(C)OP(=O)(OC(C)C)/C(I)=N/Nc1ccc([N+](=O)[O-])cc1
> 100 µM: [1] | [3] | [4] | [5] | [6] | [7] | [8] | [9] | [10] | [51] | [11] | [12] | [13] | [14] | [15] | [16] | [17] | [18] | [19] | [20] | [21] | [22] | [23] | [24] | [25] | [52] | [26] | [27] | [53] | [54] | [28] | [29] | [31] | [32] | [33] | [34] | [35] | [36] | [37] | [38] | [55] | [39] | [40] | [56] | [41] | [57] | [42] | [43] | [44] | [45] | [47] | [49] | [58]
